{
  "source": "patent US20100227841A1",
  "about": "“Patient populations and treatment methods” (Harbor BioSciencs, Inc., priority 2008, published 2010)",
  "test_system": "female NOD mice",
  "assay": "Spontaneous autoimmune diabetes in non-obese diabetic (NOD) mouse model",
  "assay_type": "in vivo",
  "description": "Treatment of spontaneous autoimmune diabetes in non-obese diabetic (NOD) mouse model. The NOD model is used as an animal model for human type 1 diabetes. The NOD mouse strain spontaneously develops autoimmune (type 1) diabetes by a process that has similarities to human type 1 diabetes mellitus, e.g., immune-mediated selective destruction of the pancreatic islet 13-cells that produce insulin (M. A. Atkinson and N. K. Maclaren, New England J. Medicine, 331:1428-1436 1994). There is a higher incidence of diabetes (i.e., hyperglycemia, glucosuria, and hypoinsulinemia) in female vs. male NOD mice (80-90% vs. 10-20%, respectively). Disease incidence in this animal model is first observed at approximately 12 to 15 weeks of age with maximum incidence usually peaking 5 to 6 weeks later.\nMethods. An oral formulation containing 17α-ethynylandrost-5-ene-3β,7β,17β-triol in 30% w/v β-cyclodextrin sulfobutyl ether sodium salt (Captisol®; CyDex, Inc., Overland Park, Kans.) was used. Six-week old female NOD mice (approximately 20-25 grams) were purchased from The Jackson Laboratories (Bar Harbor, Me.) and housed in a vivarium under pathogen-free conditions. The animals were acclimated for at least one week prior to initiation of oral dosing with 17α-ethynylandrost-5-ene-3β,7β,17β-triol. Animals were randomized into 5 per cage upon receipt and cages were subsequently randomized into dosing groups.\nFemale NOD mice were treated once daily with vehicle, 17α-ethynylandrost-5-ene-3β,7β,17β-triol (20 or 80 mg/kg in 100 μL, p.o.), or dexamethasone (0.25 mg/kg, 100 μL, i.p.) from 15 to 25 weeks of age (i.e., before the first incidence of diabetes; at the University of Catania), from 13 to 19 weeks of age (2 days after the first incidence of diabetes), or from 12 to 26 weeks of age (9 days after the first incidence of diabetes). Blood glucose was monitored using glucometers (ENCORE Glucometer, Bayer Corp., Elkhart, Ind.) at weekly intervals, beginning at 10 weeks of age. Mice with blood glucose levels 200 mg/dL on two consecutive occasions were considered diabetic. The percentage of animals with diabetes over the course of the experiment was monitored.\nHistological assessment of insulitis and functional 13-cell content was assessed at the time of disease diagnosis or at the end of the 26-week study (i.e., disease-free mice). Pancreata (after CO2 euthanasia) were immediately isolated and placed in 10% buffered formalin at room temperature overnight, and then embedded in paraffin. After de-paraffinizing, pancreas samples were rehydrated and 5 μm sections were prepared and fixed on glass slides. Some sections were stained with hematoxylin and eosin (H&E) while others were stained with anti-insulin antibody as follows; prepared sections were immersed in Tris-Buffered Saline (TBS: 10 mM Tris buffer, pH 7.4, 0.15 M NaCl) containing 1% of bovine serum albumin (BSA) and 5% normal goat serum for 2 h at room temperature followed by incubation with 2 μg/mL rat anti-insulin IgG2a monoclonal antibody (MAB1417; R&D Systems, Minneapolis, Minn.) in TBS/1% BSA overnight at 4° C. in a humidified chamber. After washing with TBS/0.5 Tween-20, sections were covered with biotinylated anti-rat IgG secondary antibody (BD biosciences, 1:1,000) for 1 h at room temperature, followed by washing with TBS/Tween-20 and incubation with streptavidin-horseradish peroxidase for 30 min. Sections were then incubated with chromogen substrate, DAB (BD Biosciences), for 5 min and counterstained with hematoxylin. The degree of insulitis (leukocyte infiltration per islet; H&E) and functional 13-cell content per islet (insulin production) was scored using a scale of 0 to 3 in which 0=none, 1=few, 2=moderate, 3=high content of inflammatory cells or functional β-cells. Pancreata that were scored were obtained from a randomly-selected portion of mice from each cohort and scores were reported as the mean±SEM for each cohort.",
  "key": {"[1]": {"conditions": "dexamethasone 0.25 mg/kg i.p. once daily"}, "[2]": {"conditions": "dexamethasone 0.25 mg/kg i.p. once daily, scale of 0 to 3"}},
  "data": [
    {"smiles": "C[C@@H]1C[C@H]2[C@@H]3CCC4=CC(=O)C=C[C@]4(C)[C@@]3(F)[C@@H](O)C[C@]2(C)[C@@]1(O)C(=O)CO", "note": "[dexamethasone, reference compound]", "values": [
      {"measurement": "Disease Incidence", "setting": "[1]", "result": "0.20 ± 0.20"},
      {"measurement": "No. Islets/pancreas (H&E)", "setting": "[1]", "result": "8.2 ± 6.3"},
      {"measurement": "Insulitis Score/Islet (H&E)", "setting": "[2]", "result": "2.0 ± 0.6"},
      {"measurement": "β-Cell Score/Islet (Insulin)", "setting": "[2]", "result": "2.3 ± 0.3"},
      {"measurement": "first incidence of diabetes", "setting": "week 19, once daily treatment from 15 to 25 weeks of age (vehicle 25%)", "result": 0, "unit": "%"}
    ]}
  ]
}
